This note sets out measurements from article PMC12210654, “Palazestrant, a novel oral Complete Estrogen Receptor Antagonist (CERAN) and Selective Estrogen Receptor Degrader (SERD), in patients with ER+/HER2− advanced or metastatic breast cancer: phase 1/2 study results” (Breast Cancer Research : BCR, 2025).

The test system of the experiment is ESR1. Kind of experiment: ESR1 mutations in cell-free DNA (SafeSEQ Breast Cancer Panel). The format is in vivo, human. As to the method: All immunohistochemistry analyses from tumor samples were performed at ICON Central Laboratories (Farmingdale, NY, USA) using the Ventana® BenchMark ULTRA™ automated staining instrument (Oro Valley, AZ, USA). Positive- and negative-control tissue and negative reagent controls were run for each marker, as well as low-ER controls for each run. Estrogen receptor levels were estimated as the number of positive tumor nuclei divided by the total number of tumor nuclei, expressed as a percentage for each receptor type. Evaluation of Ki67 was performed in accordance with Ki67 Working Group recommendations: 1) only nuclear staining was assessed as positive; 2) in cases of tumor heterogeneity (hot spots), 2 counts were performed and the average was reported; and 3) lymphocyte-rich areas were avoided when possible. Presence of activating ESR1 mutations (amino acid regions 370–381, 460–473, and 529–538) and their mutant allele fractions (MAFs) were determined in cell-free DNA (cfDNA), collected at baseline and at 8 weeks on treatment using the SafeSEQ Breast Cancer Panel (Sysmex Inostics, Baltimore, MD, USA).
In patients who underwent biomarker testing, samples collected on cycle 3 day 1 of treatment across all dose levels were compared to baseline samples to assess changes during treatment. […] Additionally, the number of endocrine resistance-associated ESR1-variant mutations (Y537S, Y537 N/C, L536H/P/R, and D538G) were reduced from 106 mutations detected at baseline (in 64 patients with detectable mutations at baseline) to 37 mutations (in 21 patients) after 2 treatment cycles of palazestrant treatment (Supplemental Fig. 2 C).
14 Supplemental Figure 2. Biomarker analyses following treatment with palazestrant.
15 Quantitative analyses were performed on patient tissue and blood samples collected at baseline and
16 cycle 3 day 1 of palazestrant treatment.
17 decreased after treatment with palazestrant compared (P=.041). B) ER Allred scores were decreased
18 after treatment with palazestrant (P=.13). C) Sankey diagram showing the number of mutations detected
19 in cfDNA for each ESR1 variant before and after treatment with palazestrant. N = number of patients in
20 the analysis; n= number of mutations.
21 49 (77%) had at least one mutation become “Not detected” at C3D1.
22 ESR1 mutation detected at C1D1, 43 (67%) had all their detected mutation(s) become “Not detected” at […]

Where [1] appears, read: of 64 patients with an ESR1 mutation detected at C1D1.

`CCCN1CC(Oc2ccc([C@@H]3c4[nH]c5ccccc5c4C[C@@H](C)N3CC(C)(C)F)cc2)C1` [palazestrant, Palazestrant]: for the setting “after 2 treatment cycles, 64 patients at baseline”, the “patients with detectable ESR1-variant mutations on treatment” value came out at 21 patients. For the same molecule, the “number of endocrine resistance-associated ESR1-variant mutations detected on treatment” value (after 2 treatment cycles, 106 mutations at baseline) is listed as 37 mutations. In addition, under setting [1], the “patients with all detected ESR1 mutation(s) become Not detected at C3D1” value is 67% and the “patients with at least one ESR1 mutation become Not detected at C3D1” value stood at 77%.
